Experimental data taken from US9289383B2, “Method of reducing intraocular pressure in humans” (Inotek Pharmaceuticals Corporation, priority 2010, dated 2016).
Read-outs that look alike come from different tables or passages of the source.

Key:
[1] = tested on: optic nerve head tissue blood flow; settings: 10 nmol, injected intravitreally, rabbits; cited from earlier work
intraocular pressure [2] = settings: topical in DMSO, three mice, cited from earlier work
[3] = In vivo study of CPA concentration in the anterior chamber after topical administration to the cornea; settings: Dutch Belted rabbits, topical to the cornea (FIG. 4)
intraocular pressure [4] = settings: CPA 165 μg; cited from earlier work
[5] = In-vitro cornea permeability study (vertical diffusion apparatus); format: in vitro ADME, rabbit; settings: for CPA levels detected on the other side of the cornea membrane (receiver chamber): compound applied to donor side of rabbit cornea membrane, GBR buffer pH 7.4, 37° C.; for cornea permeability: topical delivery to cornea
Protocol: The compounds (2a) and (2g) were prepared in powder form by Inotek Pharmaceuticals Corp. (Lexington, Mass.). Low-permeability control compound atenolol and all other chemicals were purchased from Sigma (St. Louis, Mo.). The buffer used in the permeability assessment was a glutathione-bicarbonated Ringer's (GBR) solution (110 mM NaCl, 5 mM KCl, 1 mM NaH2PO4, 30 mM NaHCO3, 1 mM CaCl2, 0.75 mM Mg Cl2, 5 mM D-glucose, and 0.3 mM reduced glutathione), pH 7.4, which was freshly prepared on the day of the experiment and oxygenated with O2/CO2 (95:5) to pH 7.4.
The compounds (2a) and (2g) were reconstituted in saline and diluted (10-fold) into the assay at a final concentration between 50 μM and 2.6 mM. Male Dutch-belted pigmented rabbits (1.5-2.5 kg body weight, 3-3.5 months old) were purchased from Covance Research Products Inc. (Denver, Pa.). The animal handling performed in this study conformed to the Guiding Principles in the Care and Use of Animals (DHEW Publication, NIH 80-23). The rabbits were euthanized by CO2 asphyxiation, and the heads were transported on ice to a testing facility, where dissection of the eyes was performed.
The corneal tissues were excised and mounted on a Harvard vertical diffusion apparatus as shown in FIG. 3 with a diffusion area of 0.64 cm2. Preheated (37° C.), pH 7.4. GBR buffer was added to the mucosal (1.5 mL) and the serosal (1.5 mL) chambers. The diffusion apparatus was maintained at 37° C. throughout the entire transport experiment. Oxygenation and agitation were achieved by bubbling O2/CO2 (95:5) through each chamber at a rate of 5-6 bubbles per second. After the 30-minute equilibration, blank GBR buffer in the mucosal (donor) chamber was withdrawn and replaced with GBR assay buffer containing the compound (2a) or the compound (2g). The transport experiments lasted 2 hours and were performed in duplicate. Every 60 minutes, 0.2-mL samples were collected from the serosal (receiver) chamber and replenished with 0.2-mL blank GBR buffer, except at the last time point; at the end of the experiment, samples were also collected from the mucosal (donor) chambers for mass balance determination.
After the transport experiment, tissue integrity (system suitability) was assessed by measuring the permeation of a low permeability control compound, atenolol, across the tissue. Donor chamber contents were replaced with GBR buffer containing 100μM atenolol, and receiver chambers were replaced with fresh blank GBR buffer. After 30 minutes of incubation, samples were collected from both chambers for analysis. The post-experimental system suitability assessment was considered acceptable if duplicate measurements yielded a mean apparent permeability (Papp) value for atenolol <1·10^−6 cm/s.
Compound A and compounds (2a) and (2g) and atenolol concentrations in the donor and receiver chambers were analyzed by LC-MS/MS methods. Apparent permeability (Papp) values were calculated using the following equation: Papp=(dCr/dt)·Vr/(A·C0)
Where, dCr /dt was the slope of the linear portion of the cumulative concentration in the receiver compartment over time in μM/sec, Vr was the volume of the receiver chamber in cm^3, A was the diffusion area in cm^2, and C0 was the measured dosing concentration in μM.
Recovery was calculated using the following equation: Recovery=100·([…])/(Vd·C0)
Where, Vr was the volume of the receiver compartment in cm^3, Vd was the volume of the donor compartment in cm^3, C0 was the dosing concentration in μM, Cr^final was the cumulative receiver concentration in μM and Cd^final was the donor concentration in μM at the end of the incubation.

intraocular pressure [6] = test: IOP of human subjects after topical administration of Compound A to the cornea; format: in vivo
Excerpt: As a result of this analysis, CPA has been identified as an active metabolite in clinical studies after the topical administration of Compound A to the cornea of human subjects.

[7] = Analysis of human plasma after topical administration of Compound A; format: in vivo; settings: human subject, topical to the cornea, LC/MS/MS
Protocol: After the administration of Compound A topically to a cornea of a human, at selected time points (e.g., Day 1: pre-dose, 5, 15, 25, 35. and 45 min and 1, 2, 4, 8 and 24 hours) samples of whole blood (10 mL) were collected for pharmacokinetic assessments using a vacutainer tube containing sodium heparin as an anticoagulant, via catheter, saline lock, or by venipuncture. The blood components were separated by centrifugation at 4° C. following standard clinical laboratory procedures for preparation of plasma from whole blood (e.g., 3000 rpm for approximately 10 min). For each sample, approximately 1 mL of plasma was stored at −20° C. or colder until analysis for Compound A and CPA concentration. Human plasma samples were analyzed for Compound A concentrations using a validated liquid chromatography/tandem mass spectrometry (LC/MS/MS) method with a lower limit of quantitation (LLOQ) of 10.0 pg/mL and a linear range from 10.0 to 2000 pg/mL. Plasma concentrations of (N(6)-cyclopentyladenosine, CPA) were also measured in some samples using a validated LC/MS/MS method with a lower limit of quantitation of 10.0 pg/mL and a linear range from 10.0 to 2000 pg/mL.

| SMILES | optic nerve head tissue blood flow [1] | change in IOP (intraocular pressure [2]; CPA at 100 nM) [mm Hg] | change in IOP (intraocular pressure [2]; CPA at 1 mM) [mm Hg] | concentration of CPA in the anterior chamber over time [3] | effect on rabbit IOP (intraocular pressure [4]) | CPA levels detected on the other side of the cornea membrane (receiver chamber) [5] | cornea permeability [5] | IOP course after buildup of CPA in plasma (intraocular pressure [6]) | transient elevation in IOP (intraocular pressure [6]) | CPA in plasma after administration of Compound A [7] |
| --- | --- | --- | --- | --- | --- | --- | --- | --- | --- | --- |
| OC[C@H]1O[C@@H](n2cnc3c(NC4CCCC4)ncnc32)[C@H](O)[C@@H]1O [CPA, N^6-cyclopentyladenosine] | increased the optic nerve head tissue blood flow | −6.8 | −1.0 | build up in concentration of CPA in the anterior chamber over time | reduction of rabbit IOP | much less than that detected when Compound A is topically applied to the cornea | does not have sufficient cornea permeability |  |  |  |
| CC(C)C(=O)OC[C@H]1O[C@@H](n2cnc3c(NC4CCCC4)ncnc32)[C@H](O)[C@@H]1O [Compound 2a, N^6-Cyclopentyl-5′-O-isobutyryl-adenosine] |  |  |  |  |  | significant levels of CPA were measureable | significant cornea permeability |  |  |  |
| CCCCCCCC(=O)OC[C@H]1O[C@@H](n2cnc3c(NC4CCCC4)ncnc32)[C@H](O)[C@@H]1O [Compound 2g, N^6-Cyclopentyl-5′-O-octanoyl-adenosine] |  |  |  |  |  | significant levels of CPA were measureable | significant cornea permeability |  |  |  |
| O=[N+]([O-])OC[C@H]1O[C@@H](n2cnc3c(NC4CCCC4)ncnc32)[C@H](O)[C@@H]1O [Compound A, ((2R,3S,4R,5R)-5-(6-(cyclopentylamino)-9H-purin-9-yl)-3,4-dihydroxytetrahydrofuran-2-yl)methyl nitrate] |  |  |  | build up in concentration of CPA in the anterior chamber over time |  | significant levels of CPA on the other side of the cornea membrane |  | continues to decline | no transient elevation in IOP is seen | detection of CPA in the plasma |
